Source: publication PMC6409085, “Three odorant-binding proteins are involved in the behavioral response of Sogatella furcifera to rice plant volatiles” (PeerJ, 2019)
Values joined by “and” are separate entries in the source; they are usually repeats but may differ in a detail not shown here. Identical values can stand only once.

Legend:
[1] = system: S. furcifera adults; test: Y-tube olfactometer behavioral trials; format: in vivo, Sogatella furcifera; conditions: odorant 50 µL/L vs hexane; adults
Outline: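 Single S. furcifera adults (2 days post-emergence, starved 0.5 h) chose between odorant (100 µL of 50 µL/L on filter paper) and hexane control in a glass Y-tube, charcoal-filtered humidified air 300 mL/min per arm, 25 ± 1 °C, 50% RH. Choice scored if insect passed half an arm and stayed >1 min within 10 min; 45 insects per compound, chi-squared test.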

[2] = molecular target: SfurOBP1 (Sogatella furcifera, UniProt V5T8N5); test: biochemical; format: binding; conditions: for Fluorescence competitive binding assay, fluorescence intensity: OBP1, three replicate columns
Outline: (§1)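 Fluorescence competitive binding used 2.0 µM SfurOBP and 2.0 µM 1-NPN reporter in 50 mM Tris-HCl, pH 7.4, with odorants at 2-20 µM. Fluorescence was read 2 min after adding the odorant (excitation 337 nm, emission 390-490 nm), in triplicate. Ki was calculated from IC50 as IC50/(1 + [1-NPN]/K1-NPN).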

[3] = molecular target: SfurOBP11 (Sogatella furcifera, UniProt V5T6E3); test: biochemical; format: binding
Outline: as §1

[4] = molecular target: SfurOBP2 (Sogatella furcifera, UniProt V5T759); test: biochemical; format: binding
Outline: as §1

[5] = molecular target: SfurOBP3 (Sogatella furcifera, UniProt V5T818); test: biochemical; format: binding; conditions: for Fluorescence competitive binding assay, fluorescence intensity: OBP3, three replicate columns
Outline: as §1

Chain of SfurOBP1 (V5T8N5 entry or part of it): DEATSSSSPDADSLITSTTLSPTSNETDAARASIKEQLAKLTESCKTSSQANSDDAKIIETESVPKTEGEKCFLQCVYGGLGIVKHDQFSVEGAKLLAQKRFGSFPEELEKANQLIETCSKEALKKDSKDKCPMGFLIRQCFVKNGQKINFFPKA
Chain of SfurOBP11 (V5T6E3 entry or part of it): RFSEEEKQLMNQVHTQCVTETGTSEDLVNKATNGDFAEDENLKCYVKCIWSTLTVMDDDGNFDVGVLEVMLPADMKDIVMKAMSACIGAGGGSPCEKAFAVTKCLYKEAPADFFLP
Chain of SfurOBP3 (V5T818 entry or part of it): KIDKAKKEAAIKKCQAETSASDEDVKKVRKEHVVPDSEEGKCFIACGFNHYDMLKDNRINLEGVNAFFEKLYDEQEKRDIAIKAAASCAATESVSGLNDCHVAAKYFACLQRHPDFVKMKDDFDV
Chain of SfurOBP2 (V5T759 entry or part of it): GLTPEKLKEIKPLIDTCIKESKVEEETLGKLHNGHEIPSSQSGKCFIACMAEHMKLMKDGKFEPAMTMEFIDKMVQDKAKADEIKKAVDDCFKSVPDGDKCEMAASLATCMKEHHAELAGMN

Fluorescence competitive binding assay, fluorescence intensity ([2]; ligand concentration 2 (μM)): 7058 and 6495 and 6761
Fluorescence competitive binding assay, fluorescence intensity ([2]; ligand concentration 4 (μM)): 6839 and 6210 and 6737
Fluorescence competitive binding assay, fluorescence intensity ([2]; ligand concentration 6 (μM)): 6250 and 6285 and 6245
Fluorescence competitive binding assay, fluorescence intensity ([2]; ligand concentration 8 (μM)): 7860 and 6318 and 6460
Fluorescence competitive binding assay, fluorescence intensity ([2]; ligand concentration 10 (μM)): 7929 and 6952 and 5745
Fluorescence competitive binding assay, fluorescence intensity ([2]; ligand concentration 12 (μM)): 6197 and 6258 and 6135
Fluorescence competitive binding assay, fluorescence intensity ([2]; ligand concentration 14 (μM)): 6889 and 6127 and 7279
Fluorescence competitive binding assay, fluorescence intensity ([2]; ligand concentration 16 (μM)): 6363 and 6530 and 5971
Fluorescence competitive binding assay, fluorescence intensity ([2]; ligand concentration 18 (μM)): 6197 and 6677 and 5953
Fluorescence competitive binding assay, fluorescence intensity ([2]; ligand concentration 20 (μM)): 6241 and 6216 and 6243
IC50 ([2]; SfurOBP1, protein and 1-NPN both 2.0 µM, competitor 2-20 µM, read-out: IC50): > 20 µM
IC50 ([3]; SfurOBP11, protein and 1-NPN both 2.0 µM, competitor 2-20 µM, read-out: IC50): > 20 µM
Fluorescence intensity, fluorescence competitive binding assay, OBP11 ([3]; ligand concentration 2, replicate 1): 29622
Fluorescence intensity, fluorescence competitive binding assay, OBP11 ([3]; ligand concentration 2, replicate 2): 27160
Fluorescence intensity, fluorescence competitive binding assay, OBP11 ([3]; ligand concentration 2, replicate 3): 24651
Fluorescence intensity, fluorescence competitive binding assay, OBP11 ([3]; ligand concentration 4, replicate 1): 27823
Fluorescence intensity, fluorescence competitive binding assay, OBP11 ([3]; ligand concentration 4, replicate 2): 29657
Fluorescence intensity, fluorescence competitive binding assay, OBP11 ([3]; ligand concentration 4, replicate 3): 29706
Fluorescence intensity, fluorescence competitive binding assay, OBP11 ([3]; ligand concentration 6, replicate 1): 29000
Fluorescence intensity, fluorescence competitive binding assay, OBP11 ([3]; ligand concentration 6, replicate 2): 25791
Fluorescence intensity, fluorescence competitive binding assay, OBP11 ([3]; ligand concentration 6, replicate 3): 27264
Fluorescence intensity, fluorescence competitive binding assay, OBP11 ([3]; ligand concentration 8, replicate 1): 26196
Fluorescence intensity, fluorescence competitive binding assay, OBP11 ([3]; ligand concentration 8, replicate 2): 25787
Fluorescence intensity, fluorescence competitive binding assay, OBP11 ([3]; ligand concentration 8, replicate 3): 26691
Fluorescence intensity, fluorescence competitive binding assay, OBP11 ([3]; ligand concentration 10, replicate 1): 22993
Fluorescence intensity, fluorescence competitive binding assay, OBP11 ([3]; ligand concentration 10, replicate 2): 24045
Fluorescence intensity, fluorescence competitive binding assay, OBP11 ([3]; ligand concentration 10, replicate 3): 23459
Fluorescence intensity, fluorescence competitive binding assay, OBP11 ([3]; ligand concentration 12, replicate 1): 23301
Fluorescence intensity, fluorescence competitive binding assay, OBP11 ([3]; ligand concentration 12, replicate 2): 22698
Fluorescence intensity, fluorescence competitive binding assay, OBP11 ([3]; ligand concentration 12, replicate 3): 22770
Fluorescence intensity, fluorescence competitive binding assay, OBP11 ([3]; ligand concentration 14, replicate 1): 21327
Fluorescence intensity, fluorescence competitive binding assay, OBP11 ([3]; ligand concentration 14, replicate 2): 20283
Fluorescence intensity, fluorescence competitive binding assay, OBP11 ([3]; ligand concentration 14, replicate 3): 20685
Fluorescence intensity, fluorescence competitive binding assay, OBP11 ([3]; ligand concentration 16, replicate 1): 18242
Fluorescence intensity, fluorescence competitive binding assay, OBP11 ([3]; ligand concentration 16, replicate 2): 16904
Fluorescence intensity, fluorescence competitive binding assay, OBP11 ([3]; ligand concentration 16, replicate 3): 18315
Fluorescence intensity, fluorescence competitive binding assay, OBP11 ([3]; ligand concentration 18, replicate 1): 21574
Fluorescence intensity, fluorescence competitive binding assay, OBP11 ([3]; ligand concentration 18, replicate 2): 21057
Fluorescence intensity, fluorescence competitive binding assay, OBP11 ([3]; ligand concentration 18, replicate 3): 21178
Fluorescence intensity, fluorescence competitive binding assay, OBP11 ([3]; ligand concentration 20, replicate 1): 19958
Fluorescence intensity, fluorescence competitive binding assay, OBP11 ([3]; ligand concentration 20, replicate 2): 19749
Fluorescence intensity, fluorescence competitive binding assay, OBP11 ([3]; ligand concentration 20, replicate 3): 19854
IC50 ([4]; SfurOBP2, protein and 1-NPN both 2.0 µM, competitor 2-20 µM, read-out: IC50): > 20 µM
Fluorescence competitive binding assay, OBP2 (raw fluorescence reading) ([4]; ligand concentration 2 (unit not given), replicate column 1 of 3): 19948
Fluorescence competitive binding assay, OBP2 (raw fluorescence reading) ([4]; ligand concentration 2 (unit not given), replicate column 2 of 3): 17721
Fluorescence competitive binding assay, OBP2 (raw fluorescence reading) ([4]; ligand concentration 2 (unit not given), replicate column 3 of 3): 20397
Fluorescence competitive binding assay, OBP2 (raw fluorescence reading) ([4]; ligand concentration 4 (unit not given), replicate column 1 of 3): 18968
Fluorescence competitive binding assay, OBP2 (raw fluorescence reading) ([4]; ligand concentration 4 (unit not given), replicate column 2 of 3): 18911
Fluorescence competitive binding assay, OBP2 (raw fluorescence reading) ([4]; ligand concentration 4 (unit not given), replicate column 3 of 3): 20133
Fluorescence competitive binding assay, OBP2 (raw fluorescence reading) ([4]; ligand concentration 6 (unit not given), replicate column 1 of 3): 20477
Fluorescence competitive binding assay, OBP2 (raw fluorescence reading) ([4]; ligand concentration 6 (unit not given), replicate column 2 of 3): 18306
Fluorescence competitive binding assay, OBP2 (raw fluorescence reading) ([4]; ligand concentration 6 (unit not given), replicate column 3 of 3): 21619
Fluorescence competitive binding assay, OBP2 (raw fluorescence reading) ([4]; ligand concentration 8 (unit not given), replicate column 1 of 3): 17546
Fluorescence competitive binding assay, OBP2 (raw fluorescence reading) ([4]; ligand concentration 8 (unit not given), replicate column 2 of 3): 19283
Fluorescence competitive binding assay, OBP2 (raw fluorescence reading) ([4]; ligand concentration 8 (unit not given), replicate column 3 of 3): 19094
Fluorescence competitive binding assay, OBP2 (raw fluorescence reading) ([4]; ligand concentration 10 (unit not given), replicate column 1 of 3): 16315
Fluorescence competitive binding assay, OBP2 (raw fluorescence reading) ([4]; ligand concentration 10 (unit not given), replicate column 2 of 3): 17446
Fluorescence competitive binding assay, OBP2 (raw fluorescence reading) ([4]; ligand concentration 10 (unit not given), replicate column 3 of 3): 18120
Fluorescence competitive binding assay, OBP2 (raw fluorescence reading) ([4]; ligand concentration 12 (unit not given), replicate column 1 of 3): 15600
Fluorescence competitive binding assay, OBP2 (raw fluorescence reading) ([4]; ligand concentration 12 (unit not given), replicate column 2 of 3): 16015
Fluorescence competitive binding assay, OBP2 (raw fluorescence reading) ([4]; ligand concentration 12 (unit not given), replicate column 3 of 3): 15598
Fluorescence competitive binding assay, OBP2 (raw fluorescence reading) ([4]; ligand concentration 14 (unit not given), replicate column 1 of 3): 15415
Fluorescence competitive binding assay, OBP2 (raw fluorescence reading) ([4]; ligand concentration 14 (unit not given), replicate column 2 of 3): 15014
Fluorescence competitive binding assay, OBP2 (raw fluorescence reading) ([4]; ligand concentration 14 (unit not given), replicate column 3 of 3): 15552
Fluorescence competitive binding assay, OBP2 (raw fluorescence reading) ([4]; ligand concentration 16 (unit not given), replicate column 1 of 3): 16559
Fluorescence competitive binding assay, OBP2 (raw fluorescence reading) ([4]; ligand concentration 16 (unit not given), replicate column 2 of 3): 13446
Fluorescence competitive binding assay, OBP2 (raw fluorescence reading) ([4]; ligand concentration 16 (unit not given), replicate column 3 of 3): 13014
Fluorescence competitive binding assay, OBP2 (raw fluorescence reading) ([4]; ligand concentration 18 (unit not given), replicate column 1 of 3): 16224
Fluorescence competitive binding assay, OBP2 (raw fluorescence reading) ([4]; ligand concentration 18 (unit not given), replicate column 2 of 3): 16658
Fluorescence competitive binding assay, OBP2 (raw fluorescence reading) ([4]; ligand concentration 18 (unit not given), replicate column 3 of 3): 15875
Fluorescence competitive binding assay, OBP2 (raw fluorescence reading) ([4]; ligand concentration 20 (unit not given), replicate column 1 of 3): 15466
Fluorescence competitive binding assay, OBP2 (raw fluorescence reading) ([4]; ligand concentration 20 (unit not given), replicate column 2 of 3): 14819
Fluorescence competitive binding assay, OBP2 (raw fluorescence reading) ([4]; ligand concentration 20 (unit not given), replicate column 3 of 3): 14364
Fluorescence competitive binding assay, fluorescence intensity ([5]; ligand concentration 2): 54416 and 49651 and 50603
Fluorescence competitive binding assay, fluorescence intensity ([5]; ligand concentration 4): 47681 and 49063 and 52745
Fluorescence competitive binding assay, fluorescence intensity ([5]; ligand concentration 6): 47400 and 49699 and 51997
Fluorescence competitive binding assay, fluorescence intensity ([5]; ligand concentration 8): 47134 and 47465 and 47300
Fluorescence competitive binding assay, fluorescence intensity ([5]; ligand concentration 10): 47300 and 47488 and 47127
Fluorescence competitive binding assay, fluorescence intensity ([5]; ligand concentration 12): 41818 and 40552 and 41184
Fluorescence competitive binding assay, fluorescence intensity ([5]; ligand concentration 14): 39535 and 41064 and 41296
Fluorescence competitive binding assay, fluorescence intensity ([5]; ligand concentration 16): 37737 and 36118 and 39070
Fluorescence competitive binding assay, fluorescence intensity ([5]; ligand concentration 18): 41678 and 41915 and 41872
Fluorescence competitive binding assay, fluorescence intensity ([5]; ligand concentration 20): 43199 and 40517 and 41843
IC50 ([5]; SfurOBP3, protein and 1-NPN both 2.0 µM, competitor 2-20 µM, read-out: IC50): > 20 µM
SMILES: CCCCCC=O [caproaldehyde]
number of insects choosing hexane arm [1]: 9
number of insects choosing volatilies arm [1]: 12
number of insects failed (no choice) [1]: 19
